Experimental data: patent publication US8618075B2, “Certain compounds, compositions and methods” (Eisai Inc., priority 2007, dated 2013)

What was measured:
[1] = Stability in acid solution by 1H NMR spectroscopy; assay type: physicochemical; conditions: D2O + one drop deuterated TFA, 27° C.
Description: Tetrahydrouridine (THU, 5 mg) is dissolved in D2O (0.75 mL). To this same sample is added one drop of deuterated TFA followed by an immediate ^1HNMR spectrum (FIG. 10). Even at this earliest time point, the peak at 5.4 ppm (˜10% conversion by integration) is indicative of the ring expansion to the TH-pyranose. After 4 hours, the TH-pyranose is more prevalent indicating about 60% conversion. At 72 hours, the conversion is almost entirely complete (>80%).
To this same sample is added one drop of deuterated TFA followed by an immediate ^1HNMR spectrum (FIG. 12). After the first time point, the only notable change is the epimerization of the aminal which is noted by the extra peaks at 5.92 and 5.93. After 4 hours and 72 hours (FIG. 13), there are no other notable changes in the spectra (D2O, 300 MHz, 27° C.).

[2] = system: L1210 mouse lymphoma model; assay: Decitabine induced survival in the L1210 survival model; assay type: in vivo; conditions: for Survival compared to vehicle control and CDA inhibitor alone: p<0.05; for Mean Liver wts. (g) ± SD / Mean Spleen wts. (g) ± SD: on autopsy; for % ILS (Increased Life Span): vs vehicle group
Description: 30 CD2F1 6-7 weeks old female mice are randomly separated into 6 groups:
L1210 Intravenous (Lv.) Injection: Prior to experiment, L1210 cells are passed at least 3 times in CD2F1 female mice. The mice are injected intraperitoneally (i.p.) with L1210 ascites one prior week to sacrifice using CO2. Each mouse is placed on its back, its belly surface is cleaned with alcohol wipes and a small incision is made into its peritoneal cavity. 2 ml of ice cold 2.1% bovine serum albumin (BSA) in saline is injected into the cavity. Fluid is withdrawn from the cavity, transferred with an 18G 3 cc syringe into a clean sterile tube, and kept on ice. The fluid is diluted 1:10 in 2.1% BSA in saline and one drop of zap-o-globin is added to 2 ml of diluted ascites. Diluted ascites (dilute 1:10 again) are counted on a hematocytomer and the number of cells/ml is calculated. A stock of ascites in BSA solution is diluted to 1×10^4 cells/0.1 ml. Mice are injected with 0.1 ml of cell solution with a 27G needle.
Decitabine is prepared at a 1 mg/ml stock in PBS and diluted appropriately to achieve a 0.01 and 0.02 mg/ml dosing solution.
Dosing Scheme: Decitabine is prepared fresh twice a day. All dose solutions are stored on ice while dosing. Mice are dosed i.p. or orally (p.o.) twice a day (8 hours apart) for 4 consecutive days.
Survival and Autopsy: Mice are observed for survival and weighed daily (Monday to Friday) for the duration of the study (30 days). Dead mice are autopsied and observed for the presence of tumors in organs. Tumor deaths are determined by liver weights greater than 1.6 g and spleen weights greater than 150 mg as per Covey et al., Eur. J. Cancer Oncol. 1985.

[3] = system: A2780 human ovarian cancer xenograft; assay: Gemcitabine-induced reduction of tumor volume in the mouse A2780 human ovarian cancer xenograft model; assay type: in vivo
Description: Female NCr nu/nu 5-6 week old mice are implanted subcutaneously with 30 to 60 mg tumor fragments. On day 11 when the tumors are approximately 200 mm^3, treatment starts as described in Table 5.
Tumor volume is followed throughout the experiment. Tumor volume is measured three times weekly. Tumor burden (mg=mm^3) is calculated from caliper measurements by the formula for the volume of a prolate ellipsoid (L×W^2)/2 where L and W are the respective orthogonal length and width measurements (mm).
The primary endpoints used to evaluate efficacy in the A2780 model are complete and partial tumor regressions, tumor growth delay and the number of tumor free survivors at the end of the study. A complete response (CR) is defined as a decrease in tumor size to an undetectable size (<50mm^3). A partial response (PR) is defined as >50% decrease in tumor mass form starting tumor size. A tumor that achieves a CR or PR during the study but starts to grow again is still considered a CR or PR. Tumor free survival (TFS) at the end of the study would be no detectable tumor (<50 mm^3) at study termination (day 74). Tumor growth delay (TGD) is defined in this experiment as the median number of days for the treatment group compared to the control group to reach 750 mm^3.

[4] = CDA inhibitor plus decitabine 0.1 mg/kg
[5] = Group 3: 0.1 mg/kg decitabine p.o. alone
[6] = 30 mg/kg Gemcitabine PO + Compound 1 10 mg/kg PO q3dx4
[7] = Group 2: Compound 1 10 mg/kg p.o. alone
[8] = Group 2: Compound 1 10 mg/kg p.o. x2 for 4 days alone
[9] = Group 4: Compound 1 1 mg/kg + 0.1 mg/kg decitabine p.o.
[10] = Group 5: Compound 1 10 mg/kg + 0.1 mg/kg decitabine p.o.
[11] = 10 mg/kg Gemcitabine PO q3dx4 alone
[12] = 30 mg/kg Gemcitabine PO q3dx4 alone

With `O=C1NC(O)CCN1[C@@H]1O[C@H](CO)[C@@H](O)[C@H]1O` (some centres unmarked) [THU, Tetrahydrouridine] the “Conversion to TH-pyranose” value ([1]; after 4 hours) was “about 60%”, the “Conversion to TH-pyranose” value ([1]; at 72 hours) was over 80% and the “Conversion to TH-pyranose (by integration)” value ([1]; immediate spectrum) was about 10%.

For `O=C1N[C@H](O)CCN1C1O[C@H](CO)[C@@H](O)[C@H]1F` (stereo partly drawn) [Compound 3a, 2′(S)-fluoro-2′deoxy-tetrahydrouridine], the “Survival compared to vehicle control and CDA inhibitor alone” value [2, 4] was “live longer”.

In the case of `Nc1ncn([C@H]2C[C@H](O)[C@@H](CO)O2)c(=O)n1` [Decitabine, 5-Aza-2′-deoxycytidine, reference compound], the “Mean Liver wts. (g) ± SD” value [2, 5] is reported as 2.05 ± 0.17 g, the “Mean Spleen wts. (g) ± SD” value [2, 5] is reported as 0.33 ± 0.06 g and the “% ILS (Increased Life Span)” value [2, 5] is reported as 43.24%. The “Mean Survival (days) ± SD” value ([2]; Group 3: 0.1 mg/kg decitabine p.o. x2 for 4 days alone) was 10.6 ± 0.56 days, the “Survival compared to vehicle control and CDA inhibitor alone” value ([2]; decitabine 0.1 mg/kg alone) was “live longer” and the “Efficacy (survival) compared to 0.1 mg/kg decitabine i.p.” value ([2]; decitabine 0.1 mg/kg p.o., not significantly different, p=0.052) was “less effective”.

For `O=C1N[C@H](O)CCN1C1O[C@H](CO)[C@@H](O)C1(F)F` (single isomer, unassigned) [Compound 1a, 2′2′-DiFluoro-TetraHydroUridine], the “Pyranose formation in acid” value ([1]; up to 72 hours, only epimerization of the aminal noted) was “no pyranose formation occurs”, the “Extending survival compared to the lower doses” value ([2]; 10 mg/kg Compound 1a in combination with DAC) was “more effective” and the “Survival compared to vehicle control and CDA inhibitor alone” value [2, 4] was “live longer”.

For `O=C1NC(O)CCN1C1O[C@H](CO)[C@@H](O)C1(F)F` (some centres unmarked) [Compound 1, 2′2′-DiFluoro-TetraHydroUridine], the “TGD (tumor growth delay)” value ([3]; 10 mg/kg Compound 1 PO q3dx4 alone, median days to reach 750 mm^3 vs control) was 0.4 days, the “Tumors displaying CR” value ([3]; 10 mg/kg Gemcitabine PO + Compound 1 10 mg/kg PO q3dx4) was 75% and the “TGD (tumor growth delay)” value ([3]; 10 mg/kg Gemcitabine PO + Compound 1 10 mg/kg PO q3dx4, p<0.05 vs 10 mg/kg Gem alone) was 19.2 days. For the same molecule, the CR [3, 6] was 100%, the “Incidence of TFS at day 74” value [3, 6] was 50% and the “TGD (tumor growth delay)” value ([3]; 30 mg/kg Gemcitabine PO + Compound 1 10 mg/kg PO q3dx4, p<0.05 vs 30 mg/kg Gem alone) was over 57 days. The “Mean Liver wts. (g) ± SD” value [2, 7] was 1.99 ± 0.22 g, the “Mean Spleen wts. (g) ± SD” value [2, 7] was 0.39 ± 0.07 g and the “Mean Survival (days) ± SD” value [2, 8] was 7.40 ± 0.55 days. The “% ILS (Increased Life Span)” value [2, 8] was 0.00%, the “Mean Survival (days) ± SD” value ([2]; Group 4: Compound 1 1 mg/kg + 0.1 mg/kg decitabine p.o. x2 for 4 days) was 12.8 ± 0.45 days and the “Mean Liver wts. (g) ± SD” value [2, 9] was 2.03 ± 0.08 g. The “Mean Spleen wts. (g) ± SD” value [2, 9] was 0.29 ± 0.03 g, the “% ILS (Increased Life Span)” value [2, 9] was 72.97% and the “Mean Survival (days) ± SD” value ([2]; Group 5: Compound 1 10 mg/kg + 0.1 mg/kg decitabine p.o. x2 for 4 days) was 14.2 ± 0.45 days. For the same molecule, the “Mean Liver wts. (g) ± SD” value [2, 10] was 2.02 ± 0.27 g, the “Mean Spleen wts. (g) ± SD” value [2, 10] was 0.29 ± 0.07 g and the “% ILS (Increased Life Span)” value [2, 10] was 91.89%.

With `Nc1ccn([C@@H]2O[C@H](CO)[C@@H](O)C2(F)F)c(=O)n1` [Gemcitabine, reference compound] the “Complete responses (CR)” value [3, 11] was “no CRs”, the “Partial responses (PR)” value [3, 11] was “no” and the “Tumor free survivors (TFS) at day 74” value [3, 11] was “no”. The “TGD (tumor growth delay)” value ([3]; 10 mg/kg Gemcitabine PO q3dx4 alone, not statistically significant) was 6.1 days, the “TGD (tumor growth delay)” value ([3]; 30 mg/kg Gemcitabine PO q3dx4 (MTD) alone, p<0.05 vs untreated control) was 22 days and the CRs [3, 12] was 63%. For the same molecule, the “Tumor free survivors (TFS) at day 74” value [3, 12] was “no TFS”.
